Measurements published in patent US4948894A, “8-fluoro and 7, 8, 10-trifluoro-9-(substituted)-6-oxo-6H-benzo-(C)quinolizine-5-carboxylic acids” (American Cyanamid Company, priority 1989, dated 1990).
Values after ≈ are worked out from the molar mass of the structure shown. Read-outs that look alike come from different tables or passages of the source.

Legend:
Experiment in all cases: In vitro antibacterial spectrum, agar plate dilution method (MIC)
Type in all cases: cell-based
Escherichia coli = settings: 10^4 CFU, 18 hours at 35° C
Experimental: (§1) The in vitro antimicrobial spectrum of the compounds of the invention were determined by the agar plate dilution method with Mueller-Hinton agar and an inoculum of each test organism of approximately 10^4 colony forming units delivered by the steers replicating device. The minimal inhibitory concentration (MIC) in mcg/ml is defined as the lowest concentration of test compound that inhibited visible growth after 18 hours incubation at 35° C.

Citrobacter diversus = settings: Citrobacter koseri; Citrobacter diversus K 82-24; Mueller-Hinton agar, 10^4 CFU, 18 hours at 35° C
Experimental: as §1

Morganella morganii = settings: 18 h, 10^4 CFU, 18 hours at 35° C
Experimental: as §1

Pseudomonas aeruginosa = settings: Mueller-Hinton agar, 10^4 CFU, 18 hours at 35° C
Experimental: as §1

Streptococcus faecalis = settings: Mueller-Hinton agar, 10^4 CFU, 18 hours at 35° C
Experimental: as §1

Klebsiella nneumoniae = settings: Mueller-Hinton agar, 10^4 CFU, 18 hours at 35° C
Experimental: as §1

Serratia marcescens = settings: 18 h, 10^4 CFU, 18 hours at 35° C
Experimental: as §1

Proteus rettgeri = settings: Providencia rettgeri; Proteus rettgeri IO 83-21; Mueller-Hinton agar, 10^4 CFU, 18 hours at 35° C
Experimental: as §1

Providencia stuartii = Providencia stuartii CMC 83-3; Mueller-Hinton agar, 10^4 CFU, 18 hours at 35° C
Experimental: as §1

Staphylococcus aureus = settings: Mueller-Hinton agar, 10^4 CFU, 18 hours at 35° C
Experimental: as §1

Enterobacter cloacae = settings: 18 h, 10^4 CFU, 18 hours at 35° C
Experimental: as §1

CN1CCN(c2cc3c(cc2F)c(=O)c(C(=O)O)c2ccccn23)CC1 [Example 6, 8-Fluoro-9-(4-methyl-1-piperazinyl)-6-oxo-6H-benzo[c]quinolizine-5-carboxylic acid]
MIC (Escherichia coli; 18 h, Escherichia coli CMC 84-50, Mueller-Hinton agar): 2 µg/mL (≈ 5.63 µM)
MIC (Escherichia coli; 18 h, Escherichia coli D 21, Mueller-Hinton agar): 4 µg/mL (≈ 11.3 µM)
MIC (Escherichia coli; 18 h, Escherichia coli D 22, Mueller-Hinton agar): 2 µg/mL (≈ 5.63 µM)
MIC (Escherichia coli; 18 h, Escherichia coli MOR 84-20, Mueller-Hinton agar): 2 µg/mL (≈ 5.63 µM)
MIC (Escherichia coli; 18 h, Escherichia coli VGH 84-19, Mueller-Hinton agar): 4 µg/mL (≈ 11.3 µM)
MIC (Escherichia coli; ATCC25922, 18 h, Escherichia coli ATCC 25922, Mueller-Hinton agar): 4 µg/mL (≈ 11.3 µM)
MIC (Citrobacter diversus): 4 µg/mL (≈ 11.3 µM)
MIC (Morganella morganii; Morganella morganii CMC 84-38, Mueller-Hinton agar): 0.5 µg/mL (≈ 1.41 µM)
MIC (Morganella morganii; Morganella morganii VGH 84-12, Mueller-Hinton agar): 4 µg/mL (≈ 11.3 µM)
MIC (Morganella morganii; Moroanella morganii MOR 84-45, Mueller-Hinton agar): 0.5 µg/mL (≈ 1.41 µM)
MIC (Pseudomonas aeruginosa; Pseudomonas aeruginosa CMC 83-20): > 16 µg/mL
MIC (Pseudomonas aeruginosa; Pseudomonas aeruginosa K 84-16, read-out: MIC): > 16 µg/mL
MIC (Pseudomonas aeruginosa; Pseudomonas aeruginosa VGH 84-3): > 16 µg/mL
MIC (Streptococcus faecalis; Enterococcus faecalis, Streptococcus faecalis VCI 85-30, read-out: MIC): > 16 µg/mL
MIC (Streptococcus faecalis; Streptococcus faecalis CMC 83-120): > 16 µg/mL
MIC (Streptococcus faecalis; Streptococcus faecalis VGH 84-69): > 16 µg/mL
MIC (Klebsiella nneumoniae; Klebsiella nneumoniae IO 83-5): 8 µg/mL (≈ 22.5 µM)
MIC (Klebsiella nneumoniae; Klebsiella nneumoniae MOR 84-24, read-out: MIC): 8 µg/mL (≈ 22.5 µM)
MIC (Klebsiella nneumoniae; Klebsiella oneumoniae CMC 84-31): 8 µg/mL (≈ 22.5 µM)
MIC (Serratia marcescens; Serratia marcescens CMC 83-74, Mueller-Hinton agar): > 16 µg/mL
MIC (Serratia marcescens; Serratia marcescens IO 83-63, Mueller-Hinton agar): 4 µg/mL (≈ 11.3 µM)
MIC (Serratia marcescens; Serratia marcescens MOR 84-41, Mueller-Hinton agar): 2 µg/mL (≈ 5.63 µM)
MIC (Proteus rettgeri): 1 µg/mL (≈ 2.81 µM)
MIC (Providencia stuartii): > 16 µg/mL
MIC (Staphylococcus aureus; ATCC25913, Staphylococcus aureus ATCC 25913, read-out: MIC): > 16 µg/mL
MIC (Staphylococcus aureus; Staphylococcus aureus CMC 83-131): > 16 µg/mL
MIC (Staphylococcus aureus; Staphylococcus aureus K 82-26): > 16 µg/mL
MIC (Staphylococcus aureus; Staphylococcus aureus VGH 84-47, read-out: MIC): > 16 µg/mL
MIC (Enterobacter cloacae; Enterobacter cloacae K 84-10, Mueller-Hinton agar): 2 µg/mL (≈ 5.63 µM)
MIC (Enterobacter cloacae; Enterobacter cloacae MOR 84-30, Mueller-Hinton agar): 16 µg/mL (≈ 45 µM)
MIC (Enterobacter cloacae; Enterobacter cloacae VGH 84-39, Mueller-Hinton agar): 2 µg/mL (≈ 5.63 µM)
